{"source": "paper PMC9376946", "about": "“Peptide-RNA Coacervates as a Cradle for the Evolution of Folded Domains” (Journal of the American Chemical Society, 2022)", "test_system": "polyU", "assay": "CW-EPR of PA-12 in the presence of polyU (bound, slow-motion population)", "type": "binding", "conditions": "spectral simulation", "method": "Lyophilized, spin-labeled peptides were dissolved in Milli-Q water and centrifuged at 4000 rpm for 10 min to remove insoluble aggregates. The soluble fractions were used to prepare stock solutions of 250–500 μM peptide. Labeled peptide concentrations were determined by comparing the area under the curve of the EPR signal against that of standard solutions of 10–285 μM TEMPO. For the EPR measurements in D2O, 200 μL of the stock solution was lyophilized and re-dissolved in D2O. The concentration of the unlabeled peptide stock solutions was determined using the bicinchoninic acid assay (Thermo Fisher Scientific) and ranged from 0.8 to 1.2 mM peptide. A stock solution of 500 mM MES, pH 5.6 was used to adjust all samples to a final concentration of 50 mM MES, pH 5.6. Aliquots of 10 mg/mL polyuridylic acid (polyU; Sigma Aldrich) were prepared in Milli-Q water and diluted as necessary. For CW-EPR measurements, a quartz capillary of 0.6 mm i.d. and 0.84 mm o.d. was filled with 7–8 μL of the sample and sealed with Critoseal (Fisherbrand, Fisher Scientific) at one end. A single capillary was placed in an X-band EPR tube of 2 mm i.d. and 2.4 mm o.d. for measurements, except for spin concentration below 50 μM, where two capillaries were used.\nEach sample was freshly prepared and the time to collect […] CW-EPR data was 30–40 min.\nCW-EPR spectra were recorded on an Elexsys E500 X-Band (9.5 GHz) Bruker spectrometer using a high sensitivity resonator at room temperature. The following parameters were used: 0.1 mT field modulation amplitude, a 15 mT scan range, and 20 mW microwave power. Each scan was 42 s and at least 9 scans were accumulated for each data set. For samples with a high concentration of polyU or a low concentration of labeled peptide, at least 25–36 scans were collected to improve the signal to noise (S/N) ratio. Simulations of the spectra were performed using the “Chili” routine of EasySpin (www.easyspin.org).[21]\nAfter characterizing the dynamic and structural properties of PA in solution, we proceeded to explore these properties upon interaction with the homopolymeric RNA molecule polyU. […] PA-12, like the unlabeled peptide, produced coacervates.[17] […] Using CW-EPR, binding of PA to RNA can be tracked through spin label dynamics. We initially kept the concentration of PA-12 constant at 150 μM and varied the amount of polyU. The CW-EPR spectra in Figure 3B indicate superposition of two populations, I and II. […] The relative intensity of II increases with the amount of polyU added, indicating binding of PA-12 to polyU. The percentage of II increased from 32% at 0.1 mg/mL polyU to 93% at 1 mg/mL polyU. Increasing to 2 mg/mL polyU and reducing the PA-12 concentration to 100 μM increased the population of II to 95% (Figures 3B and S15G). Such restricted motion and dynamic components have also been reported for proteins undergoing phase separation.[38],[39]", "note": "“And” between values parts separate entries of the source, which are not always exact repeats. Equal values may be shown once."}
{"sequence": "RIRRASVEELTCVPGIGPRLARRILERLA [PA-12, Precursor-Arg peptide in which position 12 has been modified with a cysteine and attached to an M-TEMPO spin label]", "values": [{"measurement": "population I (fast motion)", "setting": "30 μM PA-12, 1 mg/mL polyU", "result": "40 ± 5% and 40%"}, {"measurement": "population II (slow motion, polyU-bound)", "setting": "30 μM PA-12, 1 mg/mL polyU", "result": "60 ± 5% and 60%"}, {"measurement": "population I (fast motion)", "setting": "50 μM PA-12, 1 mg/mL polyU", "result": "25 ± 5", "unit": "%"}, {"measurement": "population II (slow motion, polyU-bound)", "setting": "50 μM PA-12, 1 mg/mL polyU", "result": "75 ± 5", "unit": "%"}, {"measurement": "population I (fast motion)", "setting": "100 μM PA-12, 1 mg/mL polyU", "result": "10 ± 4", "unit": "%"}, {"measurement": "population II (slow motion, polyU-bound)", "setting": "100 μM PA-12, 1 mg/mL polyU", "result": "90 ± 4", "unit": "%"}, {"measurement": "population II (slow motion, polyU-bound)", "setting": "100 μM PA-12, 2 mg/mL polyU, 50 mM MES pH 5.6, room temperature", "result": 95, "unit": "%"}, {"measurement": "population II (slow motion, polyU-bound)", "setting": "150 μM PA-12, 0.1 mg/mL polyU, 50 mM MES pH 5.6, room temperature", "result": 32, "unit": "%"}, {"measurement": "population II (slow motion, polyU-bound)", "setting": "150 μM PA-12, 1 mg/mL polyU, 50 mM MES pH 5.6, room temperature", "result": "93 ± 2% and 93%"}, {"measurement": "population I (fast motion)", "setting": "150 μM PA-12, 1 mg/mL polyU", "result": "7 ± 2", "unit": "%"}, {"measurement": "population I (fast motion)", "setting": "200 μM PA-12, 1 mg/mL polyU", "result": "4 ± 2", "unit": "%"}, {"measurement": "population II (slow motion, polyU-bound)", "setting": "200 μM PA-12, 1 mg/mL polyU", "result": "96 ± 2% and 96%"}]}
